Experimental data taken from EP2057185B1, “POLYMYXIN DERIVATIVES AND USES THEREOF” (Northern Antibiotics Oy, priority 2006, dated 2008).
Bridge positions count the residues as written; N and C are the ends. Square brackets hold non-standard residues; d marks the D form. Peptide text beside a SMILES is read from it. * marks the point of attachment. Octanoyl = CCCCCCCC(=O)*; Dab = NCC[C@H](N)C(=O)O; Abu = CC[C@H](N)C(=O)O

Tests used:
[1] = Two-week intravenous toxicity study in young rats; type: in vivo; conditions: for rise of blood urea nitrogen (BUN) over control or low dose group: 16 mg/kg/day
Experimental: Toxicity in young rats (weighing approx. 150 g in the beginning of the study) was determined by administering doses (1, 2, 4, 8, 16, and 32 mg/kg per day) of NAB7061 as well as the control compound polymyxin B intravenously twice (2) a day for two weeks. A group of ten (10) rats was studied for each dosis regimen. Clinical observations were made daily, the body weight measured twice weekly, and the food consumption twice weekly. In the end of week 2, all animals were sacrificed.
Histopathology of kidneys was performed for each animals and histopathology of all tissues was performed in three high-dose groups receiving NAB7061.

[2] = test system: Ps. aeruginosa ATCC 27853; assay: Growth inhibition around wells on LB agar plates; type: cell-based, Pseudomonas aeruginosa; conditions: for Antibacterial activity 4 µg: growth inhibition area around a well containing 4 µg; for Antibacterial activity 10 µg: growth inhibition area around a well containing 10 µg
Experimental: (§1) From an overnight-grown culture of IH3080 on LB agar, a suspension of approx. 10^8 cells/ml was prepared in 0.9% NaCl. Aliquots of this suspension were then pipetted on the agar plates and the plates were gently shaken to spread the suspension evenly on the entire surface of the plate. Thereafter, the unabsorbed part of the suspension was removed by using a Pasteur pipette. After the surface had dried, small wells (diameter, 2 mm) were drilled on the plates (five wells per plate) by using a sterile sharp-edged narrow metal tube, single-use pipette tip, and vacuum suction. Samples (4 µl and 10 µl) of the peptide solution in 0.9% NaCl (at concentrations of 1 µg/ml and 0.1 µg/ml) were then pipetted to the wells and the sample fluids were allowed to absorb. Controls included 0.9% NaCl solution without the compound to be tested. The plates were then incubated for 18 h at 37°C whereafter the diameters of growth inhibition zones around each well were measured; the diameter of the well itself was […]. Finally, the diameters were converted to surface areas of growth inhibition (in square mm).
(§2) Direct antibacterial activity of twelve NAB compounds against Acinetobacter baumannii ATCC 19606 and Pseudomonas aeruginosa ATCC 27853 was tested by using the susceptibility determination method described in Example 2. Five compounds (NAB7062, NAB734, NAB737, NAB739, and NAB740) had notable activity against A. baumannii. […] The antibacterial activity of NAB739 and NAB740 were as strong as or even stronger than that of polymyxin B.

E. coli IH3080 [3] = assay: Growth inhibition around wells on LB agar plates; type: cell-based, Escherichia coli; conditions: 18 h at 37°C; for Antibacterial activity at 4 µg: growth inhibition area around a well containing 4 µg of compound; for Antibacterial activity at 10 µg: growth inhibition area around a well containing 10 µg of compound
Experimental: Peptides synthesized in Example 1, all carrying at least two (2) but not more than three (3) positive charges, were studied for their ability to inhibit the growth of E. coli. This was tested employing LB agar (LB Agar Lennox, Difco, BD, Sparks, MD, U.S.A) plates. The indicator organism E. coli IH3080 (K1:O18) was an encapsulated strain originally isolated from a neonate suffering from meningitis (Vaara et al. 1984) and obtained from National Public Health Institute, Helsinki, Finland.
as §1, with “Samples (4 µl and 10 µl) of the peptide solution in 0.9% NaCl (at concentrations of 1 µg/ml and 0.1 µg/ml) were then pipetted to the wells and the sample fluids were allowed to absorb.” left out

E. coli IH3080 [4] = assay: Growth inhibition around wells on LB plates containing rifampin (sensitization); type: cell-based, Escherichia coli; conditions: well containing 4 µg of compound; for Antibacterial activity in the presence of rifampin concn (µg/ml) of 0: plates with no rifampin; for Antibacterial activity in the presence of rifampin concn (µg/ml) of 0.1: rifampin 0.1 µg/ml; for Antibacterial activity in the presence of rifampin concn (µg/ml) of 1.0: rifampin 1.0 µg/ml
Experimental: as §1, with “Samples (4 µl and 10 µl) of the peptide solution in 0.9% NaCl (at concentrations of 1 µg/ml and 0.1 µg/ml) were then pipetted to the wells and the sample fluids were allowed to absorb.” left out, “mm). […] Louis, MO, U.S.A).” for “mm).”

K. pneumoniae ATCC13883 = test system: K. pneumoniae ATCC13883
Experimental: (§3) MICs were determined by using E-strips (Biodisk Ltd., Solna, Sweden) according to the manufacturer's instructions.
(§4) The strains originated from ATCC (11 strains), CCUG (11 strains), and NCTC (The National Collection of Type Cultures, Colindale, U.K.; 2 strains). Eight strains (the F-strains) were purchased from Mobidiag Ltd., Helsinki, Finland.

E. cloacae ATCC23355 = test system: E. cloacae ATCC23355
Experimental: as §3, §4

E. coli IH3080 [5] = test system: E. coli IH3080
Experimental: as §3, §4

A. baumannii ATCC 19606 = assay: Growth inhibition around wells on LB agar plates; type: cell-based, Acinetobacter baumannii; conditions: for Antibacterial activity 4 µg: growth inhibition area around a well containing 4 µg; for Antibacterial activity 10 µg: growth inhibition area around a well containing 10 µg
Experimental: as §1, §2

E. cloacae CCUG52947 = assay: MIC by E-strips on Mueller-Hinton agar with or without NAB7061 (4 µg/ml); type: cell-based, Enterobacter cloacae
Experimental: as §3, §4

P. vulgaris ATCC13315 = assay: as above; type: cell-based
Experimental: as §3, §4

S. maltophilia ATCC17444 = assay: as above; type: cell-based
Experimental: as §3, §4

[6] = K. pneumoniae ATCC1 3883, 4 µg/ml of NAB 7061
[7] = E. cloacae ATCC23355, 4 µg/ml of NAB 7061
[8] = E. coli IH3080, 4 µg/ml of NAB 7061

Polymyxin B
rise of blood urea nitrogen (BUN) over control or low dose group ([1]; rat, in vivo): 15% | mortality ([1]; rats, 32 mg/kg per day intravenously, two weeks): 100% | Antibacterial activity 4 µg [2]: 95 square millimeters | Antibacterial activity 10 µg [2]: 133 square millimeters | Antibacterial activity at 4 µg (E. coli IH3080 [3]): 79 square millimeters | Antibacterial activity at 4 µg (E. coli IH3080 [3]; listed as Polymyxin B sulfate): 95 square millimeters | Antibacterial activity at 10 µg (E. coli IH3080 [3]): 133 square millimeters | Antibacterial activity in the presence of rifampin concn (µg/ml) of 0 (E. coli IH3080 [4]): 79 square millimeters | Antibacterial activity in the presence of rifampin concn (µg/ml) of 0.1 (E. coli IH3080 [4]): 95 square millimeters | Antibacterial activity in the presence of rifampin concn (µg/ml) of 1.0 (E. coli IH3080 [4]): 104 square millimeters | Sensitization factor (K. pneumoniae ATCC13883; ratio of the MIC of the antibiotic in the absence of NAB 7061 to that in the presence of 4 µg/ml of NAB 7061, K. pneum. ATCC 13883): 1 | Sensitization factor (E. cloacae ATCC23355; ratio of the MIC of the antibiotic in the absence of NAB 7061 to that in the presence of 4 µg/ml of NAB 7061, E. cloacae ATCC 23355): 4 | Sensitization factor (E. coli IH3080 [5]; ratio of the MIC of the antibiotic in the absence of NAB 7061 to that in the presence of 4 µg/ml of NAB 7061, E. coli IH 3080): 2 | Antibacterial activity 4 µg (A. baumannii ATCC 19606): 113 square millimeters | Antibacterial activity 10 µg (A. baumannii ATCC 19606): 154 square millimeters

CCCCCCCC(=O)N[C@H](C(=O)N[C@@H](CC)C(=O)N[C@H]1CCNC(=O)[C@H]([C@@H](C)O)NC(=O)[C@H](CCN)NC(=O)[C@H](CCN)NC(=O)[C@H](CC(C)C)NC(=O)[C@@H](Cc2ccccc2)NC(=O)[C@H](CCN)NC1=O)[C@@H](C)O [NAB 7061, OA-Thr-Abu-cy[Dab-Dab-DPhe-Leu-Dab-Dab-Thr-]] (Octanoyl-T[Abu][Dab][Dab][dF]L[Dab][Dab]T; lactam 3-C)
MIC (µg/ml) of clarithromycin in the presence of 4 µg/ml of NAB 7061 (E. cloacae CCUG52947): […] | MIC (µg/ml) of rifampin in the presence of 4 µg/ml of NAB 7061 (E. cloacae CCUG52947): […] | Sensitization factor to clarithromycin (E. cloacae CCUG52947; 4 µg/ml of NAB 7061): […] | Sensitization factor to rifampin (E. cloacae CCUG52947; 4 µg/ml of NAB 7061): […] | MIC (µg/ml) of clarithromycin in the presence of 4 µg/ml of NAB 7061 (P. vulgaris ATCC13315): […] | MIC (µg/ml) of rifampin in the presence of 4 µg/ml of NAB 7061 (P. vulgaris ATCC13315): 1-1,5 µg/ml | Sensitization factor to clarithromycin (P. vulgaris ATCC13315; 4 µg/ml of NAB 7061): <2 | Sensitization factor to rifampin (P. vulgaris ATCC13315; 4 µg/ml of NAB 7061): <2 | MIC (µg/ml) of clarithromycin in the presence of 4 µg/ml of NAB 7061 (S. maltophilia ATCC17444): […] | MIC (µg/ml) of rifampin in the presence of 4 µg/ml of NAB 7061 (S. maltophilia ATCC17444): […] | Sensitization factor to clarithromycin (S. maltophilia ATCC17444; 4 µg/ml of NAB 7061): […] | Sensitization factor to rifampin (S. maltophilia ATCC17444; 4 µg/ml of NAB 7061): […] | rise of blood urea nitrogen (BUN) over control or low dose group ([1]; rat, in vivo): no such a rise was found | general pathology and histopathology of organs and kidneys ([1]; rat, in vivo, iv): No NAB7061-related pathological findings | lowest dose that negatively influenced the body weight gain ([1]; rat, in vivo, iv): 8 mg/kg | rise of blood urea nitrogen (BUN) ([1]; rats, 32 mg/kg per day, end of the study): 7% | survival ([1]; rats, 1 to 32 mg/kg per day intravenously, two weeks): all rats receiving NAB7061 remained alive throughout the study | Antibacterial activity 4 µg [2]: 0 square millimeters | Antibacterial activity 10 µg [2]: 0 square millimeters | Antibacterial activity at 4 µg (E. coli IH3080 [3]): 0 square millimeters | Antibacterial activity at 10 µg (E. coli IH3080 [3]): 50 square millimeters | Antibacterial activity in the presence of rifampin concn (µg/ml) of 0 (E. coli IH3080 [4]): 0 square millimeters | Antibacterial activity in the presence of rifampin concn (µg/ml) of 0.1 (E. coli IH3080 [4]): […] | Antibacterial activity in the presence of rifampin concn (µg/ml) of 1.0 (E. coli IH3080 [4]): 155 square millimeters | MIC (µg/ml) of clarithromycin in the presence of 4 µg/ml of NAB 7061 (K. pneumoniae ATCC13883; K. pneumoniae ATCC1 3883): […] | MIC (µg/ml) of rifampin in the presence of 4 µg/ml of NAB 7061 (K. pneumoniae ATCC13883; K. pneumoniae ATCC1 3883): […] | Sensitization factor to clarithromycin (K. pneumoniae ATCC13883; [6]): […] | Sensitization factor to rifampin (K. pneumoniae ATCC13883; [6]): […] | MIC of NAB7061 (K. pneumoniae ATCC13883; K. pneumoniae ATCC13883, Mueller-Hinton agar): […] | MIC (µg/ml) of clarithromycin in the presence of 4 µg/ml of NAB 7061 (E. cloacae ATCC23355; E. cloacae ATCC23355): 0,25 - 0,75 µg/ml | MIC (µg/ml) of rifampin in the presence of 4 µg/ml of NAB 7061 (E. cloacae ATCC23355; E. cloacae ATCC23355): 0,008 - 0,016 µg/ml | Sensitization factor to clarithromycin (E. cloacae ATCC23355; [7]): […] | Sensitization factor to rifampin (E. cloacae ATCC23355; [7]): […] | MIC of NAB7061 (E. cloacae ATCC23355; E. cloacae ATCC23355, Mueller-Hinton agar): […] | MIC (µg/ml) of clarithromycin in the presence of 4 µg/ml of NAB 7061 (E. coli IH3080 [5]; E. coli IH3080): […] | MIC (µg/ml) of rifampin in the presence of 4 µg/ml of NAB 7061 (E. coli IH3080 [5]; E. coli IH3080): […] | Sensitization factor to clarithromycin (E. coli IH3080 [5]; [8]): […] | Sensitization factor to rifampin (E. coli IH3080 [5]; [8]): […] | MIC of NAB7061 (E. coli IH3080 [5]; E. coli IH3080, Mueller-Hinton agar): […] | Antibacterial activity 4 µg (A. baumannii ATCC 19606): 0 square millimeters | Antibacterial activity 10 µg (A. baumannii ATCC 19606): 0 square millimeters
